Assay [1] deals with Heat shock protein HSP90 (Homo sapiens, UniProt P07900+P08238). As to the kind of experiment: Inhibition of geldanamycin-based probe binding to HSP90 (unknown origin) by fluorescence polarization assay. The class given is protein assay.
Assay [2] deals with T1, Protein deacetylase HDAC6 (Homo sapiens, UniProt Q9UBN7).
T1 sequence (Q9UBN7 whole entry): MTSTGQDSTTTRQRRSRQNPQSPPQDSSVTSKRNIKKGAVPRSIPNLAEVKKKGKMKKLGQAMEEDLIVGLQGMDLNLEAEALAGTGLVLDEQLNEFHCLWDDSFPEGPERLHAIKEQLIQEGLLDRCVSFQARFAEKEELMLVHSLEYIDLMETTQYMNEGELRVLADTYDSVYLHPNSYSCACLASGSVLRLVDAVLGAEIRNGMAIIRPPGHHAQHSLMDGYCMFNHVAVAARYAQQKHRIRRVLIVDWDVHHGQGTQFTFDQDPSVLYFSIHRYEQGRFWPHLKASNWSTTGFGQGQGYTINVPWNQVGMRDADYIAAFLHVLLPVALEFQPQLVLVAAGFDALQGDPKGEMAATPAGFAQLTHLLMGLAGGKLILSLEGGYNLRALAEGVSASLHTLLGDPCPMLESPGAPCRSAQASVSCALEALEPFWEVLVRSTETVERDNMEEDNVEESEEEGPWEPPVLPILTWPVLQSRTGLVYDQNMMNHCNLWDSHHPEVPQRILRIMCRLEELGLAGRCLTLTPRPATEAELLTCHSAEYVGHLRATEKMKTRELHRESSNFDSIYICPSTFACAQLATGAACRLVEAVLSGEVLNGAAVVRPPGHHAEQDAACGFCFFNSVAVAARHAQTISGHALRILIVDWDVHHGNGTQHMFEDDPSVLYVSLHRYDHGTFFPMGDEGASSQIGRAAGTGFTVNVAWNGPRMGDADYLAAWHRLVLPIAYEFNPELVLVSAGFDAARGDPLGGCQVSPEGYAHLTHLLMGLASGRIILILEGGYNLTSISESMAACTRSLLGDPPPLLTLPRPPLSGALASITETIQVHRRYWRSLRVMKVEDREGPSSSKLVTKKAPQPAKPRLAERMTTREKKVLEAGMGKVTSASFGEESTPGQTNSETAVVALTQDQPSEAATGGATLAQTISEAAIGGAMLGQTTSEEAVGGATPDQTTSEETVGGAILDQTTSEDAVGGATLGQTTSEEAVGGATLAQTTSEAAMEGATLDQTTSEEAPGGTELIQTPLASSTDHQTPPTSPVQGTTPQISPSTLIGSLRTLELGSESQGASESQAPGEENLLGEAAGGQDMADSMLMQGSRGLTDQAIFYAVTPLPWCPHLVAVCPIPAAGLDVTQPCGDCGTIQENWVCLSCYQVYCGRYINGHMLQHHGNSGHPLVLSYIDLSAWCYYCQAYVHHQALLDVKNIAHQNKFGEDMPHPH
As to the kind of experiment: Inhibition of HDAC6 (unknown origin) using Arg-His-Lys-Lys(Ac) as substrate after 2 hrs by fluorescence analysis.

The target of assay [3] is Heat shock protein HSP 90-alpha (Homo sapiens, UniProt P07900). As to the kind of experiment: Inhibition of HSP90alpha (unknown origin).
For assay [4], the target named is Histone deacetylase 1 (Homo sapiens, UniProt Q13547). Description: Inhibition of HDAC1 (unknown origin) using Arg-His-Lys-Lys(Ac) as substrate after 2 hrs by fluorescence analysis.
Chain of Histone deacetylase 1 (Q13547 whole entry): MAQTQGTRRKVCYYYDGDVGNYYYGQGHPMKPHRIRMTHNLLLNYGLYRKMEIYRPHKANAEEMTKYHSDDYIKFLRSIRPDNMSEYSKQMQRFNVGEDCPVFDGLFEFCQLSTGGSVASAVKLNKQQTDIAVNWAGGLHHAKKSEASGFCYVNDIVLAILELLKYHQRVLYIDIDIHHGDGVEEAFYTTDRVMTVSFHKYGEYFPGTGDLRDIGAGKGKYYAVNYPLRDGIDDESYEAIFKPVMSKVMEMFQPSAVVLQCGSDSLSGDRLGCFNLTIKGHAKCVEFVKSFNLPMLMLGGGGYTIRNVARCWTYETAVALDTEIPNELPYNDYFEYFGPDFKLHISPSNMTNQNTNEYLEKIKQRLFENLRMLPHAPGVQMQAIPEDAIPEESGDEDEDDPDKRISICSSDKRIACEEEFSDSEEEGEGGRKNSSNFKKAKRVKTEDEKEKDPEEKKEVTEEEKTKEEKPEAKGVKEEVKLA
Assay [5] concerns the target Tyrosine-protein kinase JAK2 (Homo sapiens, UniProt O60674). As to the kind of experiment: Inhibition of human JAK2 using poly[Glu:Tyr] (4:1) as substrate in presence of [gamma33P]-ATP.

Some results are limits rather than exact numbers.

Chain of Tyrosine-protein kinase JAK2 (O60674 whole entry): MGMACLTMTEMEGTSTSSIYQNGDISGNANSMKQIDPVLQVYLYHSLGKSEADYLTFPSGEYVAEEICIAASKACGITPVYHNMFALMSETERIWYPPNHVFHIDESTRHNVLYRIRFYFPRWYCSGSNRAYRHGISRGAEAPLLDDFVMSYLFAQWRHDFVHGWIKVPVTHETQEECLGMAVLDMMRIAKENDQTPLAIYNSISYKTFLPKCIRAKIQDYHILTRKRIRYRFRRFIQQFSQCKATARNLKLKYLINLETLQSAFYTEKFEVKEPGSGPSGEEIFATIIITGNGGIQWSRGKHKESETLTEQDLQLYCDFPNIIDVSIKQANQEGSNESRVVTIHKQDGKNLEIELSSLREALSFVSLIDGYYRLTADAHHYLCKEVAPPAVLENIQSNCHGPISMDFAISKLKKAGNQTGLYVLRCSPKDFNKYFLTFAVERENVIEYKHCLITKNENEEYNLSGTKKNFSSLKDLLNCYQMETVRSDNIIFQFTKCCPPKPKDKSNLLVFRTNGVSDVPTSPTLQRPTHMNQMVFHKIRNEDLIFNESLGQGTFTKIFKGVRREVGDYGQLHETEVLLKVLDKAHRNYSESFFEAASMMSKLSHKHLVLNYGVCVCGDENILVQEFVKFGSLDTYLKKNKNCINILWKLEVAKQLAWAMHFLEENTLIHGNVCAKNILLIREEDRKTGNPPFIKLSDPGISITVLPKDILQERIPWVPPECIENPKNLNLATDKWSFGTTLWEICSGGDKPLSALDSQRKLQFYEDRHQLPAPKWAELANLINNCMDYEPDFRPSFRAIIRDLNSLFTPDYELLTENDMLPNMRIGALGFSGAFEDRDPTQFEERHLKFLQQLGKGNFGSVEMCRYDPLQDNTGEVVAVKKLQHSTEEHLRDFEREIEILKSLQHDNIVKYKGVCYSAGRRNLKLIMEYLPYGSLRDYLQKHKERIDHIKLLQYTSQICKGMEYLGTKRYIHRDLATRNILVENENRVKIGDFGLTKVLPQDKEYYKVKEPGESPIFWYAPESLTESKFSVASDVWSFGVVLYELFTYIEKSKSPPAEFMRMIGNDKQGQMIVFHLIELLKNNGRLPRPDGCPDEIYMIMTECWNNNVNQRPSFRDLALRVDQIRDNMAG

`CCNC(=O)c1cc2c(-c3cccc(OCCCCCn4cc(-c5ncnc6[nH]ccc56)cn4)c3)nc(N)nc2s1`: the IC50 – broadly, the concentration needed to halve the response being measured – in assay [1] was greater than 10 µM.

In the case of `CCNC(=O)c1cc2c(-c3cc(OCCCCCCn4cc(-c5nc(Nc6ccc(NC(=O)CCCCCCC(=O)O)cc6)nc6[nH]ccc56)cn4)c(Cl)cc3Cl)nc(N)nc2s1`, the IC50 in assay [2] is 6.3 µM; in assay [3], 20.2 µM; in assay [4], greater than 100 µM.

Take `CCNC(=O)c1cc2c(-c3cc(OCCCCCCn4cc(-c5ncnc6[nH]ccc56)cn4)c(Cl)cc3Cl)nc(N)nc2s1`: the IC50 in assay [1] is 0.11 µM; in assay [5] it was 1.71 µM.

With `CCNC(=O)c1cc2c(-c3cc(OCCCCCCn4cc(-c5nc(Nc6ccc(NC(=O)CCCCCCC(=O)NO)cc6)nc6[nH]ccc56)cn4)c(Cl)cc3Cl)nc(N)nc2s1`, the IC50 in assay [2] is 2.82 µM; in assay [3], greater than 100 µM; in assay [4] it was greater than 100 µM; in assay [5] it was 14.1 µM.

Consider `CCNC(=O)c1cc2c(-c3cccc(OCCCCn4cc(-c5ncnc6[nH]ccc56)cn4)c3)nc(N)nc2s1`, for which the IC50 in assay [1] and in assay [5] was greater than 10 µM each time.

In the case of `CCNC(=O)c1cc2c(-c3cc(OCCCCCn4cc(-c5ncnc6[nH]ccc56)cn4)c(Cl)cc3Cl)nc(N)nc2s1`, the values for the IC50 in assay [1] and in assay [5] were 0.4 µM and 3.45 µM, respectively.

Consider `CCNC(=O)c1cc2c(-c3cccc(OCCCCCCn4cc(-c5ncnc6[nH]ccc56)cn4)c3)nc(N)nc2s1`, for which, in assay [1], the IC50 was greater than 10 µM.

As for `CCNC(=O)c1cc2c(-c3cccc(OCCCCCCOc4ccc(Nc5nc(-c6cnn(CCCCCCC(=O)NO)c6)c6cc[nH]c6n5)cc4)c3)nc(N)nc2s1`, the 50% inhibitory concentration (IC50) is 0.008 µM in assay [2], greater than 100 µM in assay [3], 2.47 µM in assay [4] and greater than 100 µM in assay [5].

The values are drawn from ChEMBL document CHEMBL4219149, “Design and synthesis of triple inhibitors of janus kinase (JAK), histone deacetylase (HDAC) and Heat Shock Protein 90 (HSP90)” (Bioorg Med Chem Lett, 2018).
